Consider one molecule from publication PMC5283573 (Biochemistry, 2016).

For assay [1], the target named is T1, imidazole glycerol phosphate synthase (IGPS), HisH-HisF heterodimer (Thermotoga maritima, UniProt Q9X0C6+Q9X0C8). Kind of assay: isothermal titration calorimetry. The class given is binding.
In assay [2] the target is T1, imidazole glycerol phosphate synthase (IGPS), HisH-HisF heterodimer. Description: glutaminase assay, coupled glutamate dehydrogenase/APAD. The class given is biochemical.

For orientation: Kd means the equilibrium constant for the complex coming apart. Lower therefore signals tighter binding. One may read the Ki as the dissociation constant of the complex between target and ligand, obtained from inhibition or displacement. The low end stands for tighter binding, the high end for weaker binding. In assay [1], `CCC(CNCCO)Nc1nc2c(c(=O)n(C)c(=O)n2C)n1Cc1ccccc1` (centres unmarked) [compound 3, 7-benzyl-8-[(1-{[(2-hydroxyethyl)amino]methyl}propyl)amino]-1,3-dimethyl-2,3,6,7-tetrahydro-1H-2,6-purinedione] returned a Kd of 1500 ± 300 µM. In addition, affinity in assay [2] was put at a Ki of 900 ± 70 µM.
